From patent publication EP4653451A1, “POLYPEPTIDE COMPOUND AND USE THEREOF” (Chengdu New Radiomedicine Technology Co., Ltd., priority 2023, dated 2024)
pIC50: −log10 of the molar value. Counter-ions that a name gives are not always drawn. Like-named read-outs stand apart in the source and are kept apart here. Numbered stars: 1 amine (or outer) side, 2 acyl side, 3 side chain; on linkers, the order of the positions; unused ones are H or OH. Bridge positions count the residues as written; N and C are the ends. Square brackets hold non-standard residues; d marks the D form. Peptide text beside a SMILES is read from it. * marks the point of attachment. TBMB(SCH2CH2NH-DOTA) = O=C(O)CN1CCN(CC(=O)O)CCN(CC(=O)NCCSCc2cc(C[*:1])cc(C[*:2])c2)CCN(CC(=O)O)CC1; X4 = CC(=O)NC[C@H](CSCc1cccc(C[*:1])c1)N[*:2]; X6 = NC[C@H](CSCc1cccc(C[*:1])c1)N[*:2]; 1Nal = N[C@@H](Cc1cccc2ccccc12)C(=O)O; d1Nal = N[C@H](Cc1cccc2ccccc12)C(=O)O; mXylylene = c1cc(C[*:1])cc(C[*:2])c1; Cha = N[C@@H](CC1CCCCC1)C(=O)O; d(β3hC) = N[C@H](CS)CC(=O)O; β3hC = N[C@@H](CS)CC(=O)O; Hexanoyl = CCCCCC(=O)*

Columns and labels:
[1] = target: T1, human recombinant DPP4 protein (Homo sapiens, UniProt P27487); assay: Inhibitory activity against DPP4 protease activity (H-Gly-Pro-AMC fluorescence); type: biochemical; details: 125 pM DPP4 working solution, 90 min at room temperature
T1 construct: purchased Acrobiosystems DP4-H5211
Procedure: The human recombinant DPP4 protein (Acrobiosystems, DP4-H5211) was formulated into a 125 pM working solution with an assay buffer (20 mM Tris-HCl, 100 mM NaCl), and the DPP4 substrate (H-Gly-Pro-AMC.HBr (LEONBIO, 115035-46-6)) was diluted to a 250 µM DPP4 substrate working solution with the assay buffer. 40 µl of DPP4 working solution and 20 µl of compounds at different concentrations (4-fold dilution) were taken, then 40 µl of DPP4 substrate working solution was added, and the mixture was uniformly mixed on a shaker at room temperature for 1 min. The uniformly mixed mixture was reacted at room temperature in the dark for 90 min. Reading was made by microplate reader at excitation and emission wavelengths of 380 nm and 460 nm. The original data was saved, and the IC50 value of the compound was obtained by analyzing the data with Graphpad PRISM.

[2] = target: T2, human recombinant FAP protein (Homo sapiens, UniProt Q12884); assay: Inhibitory activity against FAP protease activity (Z-Gly-Pro-AMC fluorescence); type: biochemical; details: for inhibitory activity against FAP protease activity: in words
T2 construct: purchased Acrobiosystems FAP-H82Q6
T2 sequence (Q12884 1-760): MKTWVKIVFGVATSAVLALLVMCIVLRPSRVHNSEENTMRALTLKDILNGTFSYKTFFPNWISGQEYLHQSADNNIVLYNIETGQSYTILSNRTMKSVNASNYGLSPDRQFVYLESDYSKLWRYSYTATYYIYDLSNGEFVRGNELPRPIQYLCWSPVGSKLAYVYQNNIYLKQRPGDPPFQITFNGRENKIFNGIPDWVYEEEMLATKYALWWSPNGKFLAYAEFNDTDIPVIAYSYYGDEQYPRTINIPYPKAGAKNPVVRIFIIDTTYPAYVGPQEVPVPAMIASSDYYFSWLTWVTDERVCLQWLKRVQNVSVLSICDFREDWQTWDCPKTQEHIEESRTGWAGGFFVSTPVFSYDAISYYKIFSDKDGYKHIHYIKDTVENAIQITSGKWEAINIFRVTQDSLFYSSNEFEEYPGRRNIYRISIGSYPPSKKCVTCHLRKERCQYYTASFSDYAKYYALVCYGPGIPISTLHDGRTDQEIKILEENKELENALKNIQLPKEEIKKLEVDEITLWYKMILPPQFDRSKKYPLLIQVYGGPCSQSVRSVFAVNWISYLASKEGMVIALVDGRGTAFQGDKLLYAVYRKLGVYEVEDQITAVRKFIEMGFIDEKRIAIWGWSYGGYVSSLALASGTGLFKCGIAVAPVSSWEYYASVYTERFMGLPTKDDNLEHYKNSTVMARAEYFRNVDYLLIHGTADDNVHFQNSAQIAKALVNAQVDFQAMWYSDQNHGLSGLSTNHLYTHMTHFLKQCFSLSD
Procedure: The human recombinant FAP protein (Acrobiosystems, FAP-H82Q6) was diluted to a 125 pM FAP working solution with an assay buffer (50 mM Tris-HCl, 1 M NaCl, 1 mg/mL BSA, pH 7.5), and the FAP substrate (Z-Gly-Pro-AMC (LEONBIO, 68542-93-8)) was diluted to a 150 µM substrate working solution with the assay buffer. 40 µl of FAP working solution and 20 µl of compounds at different concentrations (4-fold dilution) were taken, then 40 µl of substrate working solution was added, and the mixture was uniformly mixed on a shaker at room temperature for 1 min. The uniformly mixed mixture was reacted at room temperature in the dark for 90 min. The fluorescence value Ex = 380 nm/Em = 460 nm was read by using a microplate reader. The original data was saved, and the IC50 value of the compound was obtained by using the original data or the Inhibition% via calculation and analyzing the data with Graphpad PRISM.

[3] = 125 pM FAP working solution, 90 min at room temperature, read-out: FAP IC50

T1 sequence (P27487 whole entry): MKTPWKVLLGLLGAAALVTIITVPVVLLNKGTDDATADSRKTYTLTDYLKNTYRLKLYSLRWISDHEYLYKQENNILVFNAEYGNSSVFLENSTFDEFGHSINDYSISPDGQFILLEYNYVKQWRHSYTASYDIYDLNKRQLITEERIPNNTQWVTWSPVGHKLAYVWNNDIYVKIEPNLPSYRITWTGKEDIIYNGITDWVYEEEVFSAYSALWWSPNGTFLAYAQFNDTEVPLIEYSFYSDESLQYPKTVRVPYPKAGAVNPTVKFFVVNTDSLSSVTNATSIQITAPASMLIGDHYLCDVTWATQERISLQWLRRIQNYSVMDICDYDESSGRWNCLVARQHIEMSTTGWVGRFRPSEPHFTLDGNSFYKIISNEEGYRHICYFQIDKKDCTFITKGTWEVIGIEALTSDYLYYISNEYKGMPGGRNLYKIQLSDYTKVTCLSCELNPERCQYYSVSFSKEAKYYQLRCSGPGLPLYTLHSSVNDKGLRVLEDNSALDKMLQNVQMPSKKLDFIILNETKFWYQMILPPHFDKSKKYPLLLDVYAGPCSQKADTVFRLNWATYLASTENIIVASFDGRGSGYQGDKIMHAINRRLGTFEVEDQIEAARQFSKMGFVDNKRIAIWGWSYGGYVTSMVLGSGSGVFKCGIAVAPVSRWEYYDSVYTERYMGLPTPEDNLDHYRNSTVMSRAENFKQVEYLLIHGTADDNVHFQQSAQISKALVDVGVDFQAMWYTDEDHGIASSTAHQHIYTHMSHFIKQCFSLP

Row | SMILES | pIC50 [2, 3] | inhibitory activity against FAP protease activity [2] | pIC50 [1] | pIC50 [2]
1 | CCCCCC(=O)N[C@H]1CSCc2cccc(c2)CSC[C@@H](CC(=O)N[C@@H](CC(=O)O)C(N)=O)NC(=O)[C@H](Cc2ccccc2)NC(=O)[C@H](CCC(N)=O)NC(=O)[C@H]([C@@H](C)O)NC(=O)[C@@H]2CCCN2C(=O)[C@@H]2CCCN2C1=O [Compound 1, Hex-Cys-Pro-Pro-Thr-Gln-Phe-beta-HomoCys-Asp-NH2 (Cys bridge DBMB) trifluoroacetate] (Hexanoyl-CPPTQF[β3hC]D-NH2; linker 1-7 via mXylylene) |  |  | < 5.00 | 8.54
2 | CCCCCC(=O)N[C@H]1CSCc2cccc(c2)CSC[C@@H](CC(=O)O)NC(=O)[C@H](Cc2ccccc2)NC(=O)[C@H](CCC(N)=O)NC(=O)[C@H]([C@@H](C)O)NC(=O)[C@@H]2CCCN2C(=O)[C@@H]2CCCN2C1=O [Compound 2, Hex-Cys-Pro-Pro-Thr-Gln-Phe-beta-HomoCys-OH (Cys bridge DBMB) trifluoroacetate] |  |  | < 5.00 | 8.37
3 | CCCCCC(=O)N[C@H]1CSCc2cccc(c2)CSC[C@@H](C(=O)O)NC(=O)[C@H](CC2CCCCC2)NC(=O)[C@H](CCC(N)=O)NC(=O)[C@H]([C@@H](C)O)NC(=O)[C@@H]2CCCN2C(=O)[C@@H]2CCCN2C1=O [Compound 3, Hex-Cys-Pro-Pro-Thr-Gln-Cha-Cys-OH (Cys bridge DBMB) trifluoroacetate] (Hexanoyl-CPPTQ[Cha]C-OH; linker 1-7 via mXylylene) |  |  | < 5.00 | 7.60
4 | CCCCCC(=O)N[C@H]1CSCc2cccc(c2)CSC[C@@H](C(=O)O)NC(=O)[C@H](Cc2ccccc2)NC(=O)[C@H](CCC(N)=O)NC(=O)[C@H]([C@@H](C)O)NC(=O)[C@@H]2CCCN2C(=O)[C@@H]2CCCN2C1=O [Compound 3BP-4186, reference compound] |  |  | < 5.00 | 7.01
5 | CCCCCC(=O)N[C@H]1CSCc2cccc(c2)CSC[C@@H](CN)NC(=O)[C@H](Cc2ccccc2)NC(=O)[C@H](CCC(N)=O)NC(=O)[C@H]([C@@H](C)O)NC(=O)[C@@H]2CCCN2C(=O)[C@@H]2CCCN2C1=O [Compound 4, Hex-Cys-Pro-Pro-Thr-Gln-Phe-Cys-CH2NH2 (Cys bridge DBMB) trifluoroacetate] (Hexanoyl-CPPTQF; linker 1-C via X6) |  |  |  | 7.95
6 | CCCCCC(=O)N[C@H]1CSCc2cccc(c2)CSC[C@@H](CNC(C)=O)NC(=O)[C@H](Cc2ccccc2)NC(=O)[C@H](CCC(N)=O)NC(=O)[C@H]([C@@H](C)O)NC(=O)[C@@H]2CCCN2C(=O)[C@@H]2CCCN2C1=O [Compound 5, Hex-Cys-Pro-Pro-Thr-Gln-Phe-Cys-CH2NHAc (Cys bridge DBMB) trifluoroacetate] (Hexanoyl-CPPTQF; linker 1-C via X4) |  |  | < 5.00 | 8.74
7 | CCCCCC(=O)N[C@H]1CSCc2cccc(c2F)CSC[C@@H](C(=O)O)NC(=O)[C@H](Cc2ccccc2)NC(=O)[C@H](CCC(N)=O)NC(=O)[C@H]([C@@H](C)O)NC(=O)[C@@H]2CCCN2C(=O)[C@@H]2CCCN2C1=O [Compound 6, Hex-Cys-Pro-Pro-Thr-Gln-Phe-Cys-OH (Cys bridge 2,6-bis(bromomethyl)fluorobenzene) trifluoroacetate] | 8.14 |  | < 5.00 | 
8 | CCCCCC(=O)N[C@@H]1CSCc2cc(CSCCNC(=O)CN3CCN(CC(=O)O)CCN(CC(=O)O)CCN(CC(=O)O)CC3)cc(c2)CSC[C@@H](CC(=O)O)NC(=O)[C@H](Cc2cccc3ccccc23)NC(=O)[C@H](CCC(N)=O)NC(=O)[C@H]([C@@H](C)O)NC(=O)[C@@H]2CCCN2C(=O)[C@@H]2CCCN2C1=O [Compound 78, Hexanoyl-(D-Cys(tMeBn(DOTA-AET))-Pro-Pro-Thr-Gln-1Nal-betahomoCys)-OH] (Hexanoyl-[dC]PPTQ[1Nal][β3hC]-OH; linker 1-7 via TBMB(SCH2CH2NH-DOTA)) | 7.83 | good inhibitory activity |  | 
9 | CCCCCC(=O)N[C@H]1CSCc2cc(CSCCNC(=O)CN3CCN(CC(=O)O)CCN(CC(=O)O)CCN(CC(=O)O)CC3)cc(c2)CSC[C@@H](CC(=O)O)NC(=O)[C@H](Cc2cccc3ccccc23)NC(=O)[C@H](CCC(N)=O)NC(=O)[C@H]([C@@H](C)O)NC(=O)[C@@H]2CCCN2C(=O)[C@H]2CCCN2C1=O [Compound 79, Hexanoyl-(Cys(tMeBn(DOTA-AET))-D-Pro-Pro-Thr-Gln-1Nal-betahomoCys)-OH] (Hexanoyl-C[dP]PTQ[1Nal][β3hC]-OH; linker 1-7 via TBMB(SCH2CH2NH-DOTA)) | < 5.30 |  |  | 

Continued, in another order:

Row | pIC50 [2, 3] | inhibitory activity against FAP protease activity [2] | SMILES | pIC50 [1] | pIC50 [2]
10 | 6.25 |  | CCCCCC(=O)N[C@H]1CSCc2cc(CSCCNC(=O)CN3CCN(CC(=O)O)CCN(CC(=O)O)CCN(CC(=O)O)CC3)cc(c2)CSC[C@@H](CC(=O)O)NC(=O)[C@H](Cc2cccc3ccccc23)NC(=O)[C@H](CCC(N)=O)NC(=O)[C@H]([C@@H](C)O)NC(=O)[C@H]2CCCN2C(=O)[C@@H]2CCCN2C1=O [Compound 80, Hexanoyl-(Cys(tMeBn(DOTA-AET))-Pro-D-Pro-Thr-Gln-1Nal-betahomoCys)-OH] (Hexanoyl-CP[dP]TQ[1Nal][β3hC]-OH; linker 1-7 via TBMB(SCH2CH2NH-DOTA)) |  | 
11 | 7.15 | good inhibitory activity | CCCCCC(=O)N[C@H]1CSCc2cc(CSCCNC(=O)CN3CCN(CC(=O)O)CCN(CC(=O)O)CCN(CC(=O)O)CC3)cc(c2)CSC[C@@H](CC(=O)O)NC(=O)[C@H](Cc2cccc3ccccc23)NC(=O)[C@H](CCC(N)=O)NC(=O)[C@@H]([C@H](C)O)NC(=O)[C@@H]2CCCN2C(=O)[C@@H]2CCCN2C1=O [Compound 81, Hexanoyl-(Cys(tMeBn(DOTA-AET))-Pro-Pro-D-Thr-Gln-1Nal-betahomoCys)-OH] (Hexanoyl-CPP[dT]Q[1Nal][β3hC]-OH; linker 1-7 via TBMB(SCH2CH2NH-DOTA)) |  | 
12 | 6.68 |  | CCCCCC(=O)N[C@H]1CSCc2cc(CSCCNC(=O)CN3CCN(CC(=O)O)CCN(CC(=O)O)CCN(CC(=O)O)CC3)cc(c2)CSC[C@@H](CC(=O)O)NC(=O)[C@H](Cc2cccc3ccccc23)NC(=O)[C@@H](CCC(N)=O)NC(=O)[C@H]([C@@H](C)O)NC(=O)[C@@H]2CCCN2C(=O)[C@@H]2CCCN2C1=O [Compound 82, Hexanoyl-(Cys(tMeBn(DOTA-AET))-Pro-Pro-Thr-D-Gln-1Nal-betahomoCys)-OH] (Hexanoyl-CPPT[dQ][1Nal][β3hC]-OH; linker 1-7 via TBMB(SCH2CH2NH-DOTA)) |  | 
13 | 5.98 |  | CCCCCC(=O)N[C@H]1CSCc2cc(CSCCNC(=O)CN3CCN(CC(=O)O)CCN(CC(=O)O)CCN(CC(=O)O)CC3)cc(c2)CSC[C@@H](CC(=O)O)NC(=O)[C@@H](Cc2cccc3ccccc23)NC(=O)[C@H](CCC(N)=O)NC(=O)[C@H]([C@@H](C)O)NC(=O)[C@@H]2CCCN2C(=O)[C@@H]2CCCN2C1=O [Compound 83, Hexanoyl-(Cys(tMeBn(DOTA-AET))-Pro-Pro-Thr-Gln-D-1Nal-betahomoCys)-OH] (Hexanoyl-CPPTQ[d1Nal][β3hC]-OH; linker 1-7 via TBMB(SCH2CH2NH-DOTA)) |  | 
14 | 8.17 | good inhibitory activity | CCCCCC(=O)N[C@H]1CSCc2cc(CSCCNC(=O)CN3CCN(CC(=O)O)CCN(CC(=O)O)CCN(CC(=O)O)CC3)cc(c2)CSC[C@H](CC(=O)O)NC(=O)[C@H](Cc2cccc3ccccc23)NC(=O)[C@H](CCC(N)=O)NC(=O)[C@H]([C@@H](C)O)NC(=O)[C@@H]2CCCN2C(=O)[C@@H]2CCCN2C1=O [Compound 84, Hexanoyl-(Cys(tMeBn(DOTA-AET))-Pro-Pro-Thr-Gln-1Nal-D-betahomoCys)-OH] (Hexanoyl-CPPTQ[1Nal][d(β3hC)]-OH; linker 1-7 via TBMB(SCH2CH2NH-DOTA)) |  | 
